The source of these data is publication PMC12140300, “Development of Carbon‐11 Labeled Pyrimidine Derivatives as Novel Positron Emission Tomography (PET) Agents Enabling Brain Sigma‐1 Receptor Imaging” (Advanced Science, 2025).

In data set [1] the test system is σ2R. Also noted: method as in PMID 25420090. Particulars: selectivity ratio, previous work; cited from earlier work.
Details of data set [2]: method as in PMID 25420090. Conditions: cited from earlier work.
Data set [3] relates to non-target receptors or ion channels. Also noted: method as in PMID 25420090. Particulars: cited from earlier work.
Data set [4] deals with σ1R. Also noted: method as in PMID 25420090. Particulars: rodent acute and neuropathic pain models; cited from earlier work.
In data set [5] the target is T1, σ1R (Mus musculus, UniProt O55242).
T1 construct: The PET/CT studies in mice followed previously reported procedures; from tissue; host or cells: mouse brain in vivo (C57BL/6 wild type; 5xFAD transgenic)
T1 sequence (O55242 whole entry): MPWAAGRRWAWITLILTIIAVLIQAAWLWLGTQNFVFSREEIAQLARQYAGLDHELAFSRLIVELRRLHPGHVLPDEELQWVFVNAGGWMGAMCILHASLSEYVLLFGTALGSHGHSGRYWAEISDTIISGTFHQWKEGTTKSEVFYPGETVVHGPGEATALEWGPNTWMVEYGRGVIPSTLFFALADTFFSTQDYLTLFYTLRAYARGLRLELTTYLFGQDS
Description: Mice PET/CT imaging, baseline and self-blocking. The class given is in vivo, C57BL/6 mice. How it is done:
PET/CT imaging studies of [^11C]CNY‐01 and [^11C]CNY‐02 were performed in male C57BL/6 mice. […] The whole‐brain time‐activity curve (TAC) of each tracer was generated. […] To investigate the binding specificity of [^11C]CNY‐01 and [^11C]CNY‐02, blocking studies were carried out by pre‐administrating mice with corresponding unlabeled ligands. […] This is due to the receptors in peripheral tissues being occupied by CNY‐01, leading to more radiotracer entering the brain and quickly washing out. […] Of note, the TACs show an increase in brain tracer uptake during the blocking studies, which could be attributed to peripheral blocking effects. To address this, we normalized the brain uptake data to the maximum radioactivity observed in the blood (input function). This normalization allowed us to account for peripheral changes in tracer availability.
Figure 3 Mice PET/CT study with [^11C]CNY‐01 and [^11C]CNY‐02. A) Representative baseline and blocking (pre‐treated with 1.0 mg kg^−1 CNY‐01) PET/CT images of [^11C]CNY‐01 focused on the brain (summed 30‒60 min, n = 4). B) Whole brain time‐activity curves of [^11C]CNY‐01 for baseline and blocking mice. C) The normalized baseline and blocking TACs of [^11C]CNY‐01 (normalized the brain uptake curves with the maximum radioactivity in the blood at each time point). D) Representative baseline and blocking (pre‐treated with 1.0 mg kg^−1 CNY‐02) PET/CT images of [^11C]CNY‐02 focused on the brain (summed 30‒60 min, n = 4). E) Whole brain time‐activity curves of [^11C]CNY‐02 for baseline and blocking mice. F) The normalized baseline and blocking TACs of [^11C]CNY‐02 (normalized the brain uptake curves with the maximum radioactivity in the blood at each time point). Data were presented as mean ± standard error of the mean (SEM). Quantification of results was performed using Student's t‐test (***p < 0.0001).
The PET/CT studies in mice followed previously reported procedures with minor modifications.^[ [53], [54] ^] Mice (wild‐type: C57BL/6, male, 6‐month‐old; AD transgenic: 5xFAD, male, 6‐month‐old, n = 4 for each group) were anesthetized with inhalational isoflurane (Patterson Vet Supply, Inc., Greeley, CO, USA) at 2.0% in a carrier of 2 L min^−1 medical oxygen, and maintained at 1.0% isoflurane during the imaging scan. Mice were injected with radiotracer (200 µL) via lateral tail vein catheterization at the start of the dynamic PET scan (Gamma Medica, Northridge, CA, USA). For blocking studies, the blocking agent was administered via the tail vein 5 min before radiotracer injection. Dynamic PET acquisition lasted 60 min and was followed by computed tomography (CT) for anatomic co‐registration. […] Reconstructed images were exported from the scanner in DICOM format and were analyzed using PMOD (PMOD 4.01).

The target in data set [6] is vesicular acetylcholine transporter (VAChT). Particulars: off-target affinity; literature value, no reference given; cited from earlier work.
Data set [7] deals with σ2R. The arrangement: method as in PMID 26384292. Conditions: selectivity ratio; cited from earlier work.
The target of data set [8] is emopamil binding protein (EBP). The arrangement: method as in PMID 11377189. Particulars: off-target affinity; cited from earlier work.
The target of data set [9] is σ1R. Conditions: cited from earlier work.
Data set [10] relates to σ1R. The arrangement: method as in PMID 28572487. Conditions: human brain, three-hour imaging period; cited from earlier work.

Like-named read-outs stand apart in the source and are kept apart here.

Take `Cc1nc(-c2ccc(Cl)cc2)nc(OCCCN2CCCCC2)c1Cl` [Lan-0101, 5‐chloro‐2‐(4‐chlorophenyl)‐4‐methyl‐6‐(3‐(piperidin‐1‐yl)propoxy)pyrimidine]: the σ2R/σ1R in [1] is given as 1344. In addition, the brain penetration entry in [2] was “good brain penetration”. For the same compound, the “binding affinities to non-target receptors or ion channels” value in [3] is “no significant binding affinities”. In addition, the antinociceptive effects entry in [4] is recorded as “dose‐dependent antinociceptive effects”.

On to `Cc1nc(-c2ccc(Cl)cc2)nc(OCCCN2CCN([11CH3])CC2)c1Cl` [[^11C]CNY-02], for which, in data set [5] (male C57BL/6 mice, baseline PET/CT), the “maximum standard uptake value (SUV) in the brain” value is on record as 0.7. The “blocking effect, brain uptake normalized to maximum radioactivity in the blood” value in data set [5] (pre-treated with 1.0 mg kg^−1 of the corresponding unlabeled ligand) is on record as “does not show a significant blocking effect”.

For `COc1cc(CCN2CCN(CCCc3ccccc3)CC2)ccc1O[11CH3]` [[^11C]SA4503], the inhibition constant Ki in data set [6] was 50 nM; in data set [8] it was 1.7 nM. Moreover, the σ2R/σ1R in [7] is on record as 13.3–55.0.

Regarding `O=c1sc2cc(CCC[18F])ccc2n1CCN1CCCCCC1` [[^18F]FTC-146], the inhibitory constant (Ki) in data set [9] is 0.0025 nM. Also, the brain clearance entry in data set [10] is “unexpectedly slow brain clearance”.
